In the supplement of paper PMC7661543:
± gives the standard deviation of the averaged measurements.

Legend:
Assay in all cases: relative cell number vs DMSO control (72 h) (% of DMSO); higher = less growth inhibition (more cells)
Settings in all cases: sgRNA knockout: sgNT
ZR-75-1 = system: ZR-75-1
Method in brief: (§1)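 Sample-specific 293T spike-in standard curves were used to interpolate cell numbers from sequenced sgRNA and cell-line barcode reads. These reads came from pooled Cas9-engineered breast cancer lines with 12 sgRNA perturbations each. The lines were induced with 100 ng/mL doxycycline for 6 days, seeded at 5000 cells per 96-well, and treated in duplicate for 72 h at four 10-fold doses (10 nM–10 μM or 1 nM–1 μM). Relative cell number is expressed in percent of the DMSO-treated sample median.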

MDA-MB-231 = system: MDA-MB-231
Method in brief: as §1

BT-20 = system: BT-20
Method in brief: as §1

SKBR3 = system: SKBR3
Method in brief: as §1

HCC-38 = system: HCC-38
Method in brief: as §1

## COCC[n+]1c2c(n(Cc3cnccn3)c1C)C(=O)c1ccccc1C2=O [YM155]
ZR-75-1; 1 nM
  relative cell number: 87.2 ± 46
ZR-75-1; 10 nM
  relative cell number: 23.9 ± 13
ZR-75-1; 100 nM
  relative cell number: 6.08 ± 4.9
ZR-75-1; 1000 nM
  relative cell number: 3.11 ± 2.6
MDA-MB-231; 1 nM
  relative cell number: 75.1 ± 3.9
MDA-MB-231; 10 nM
  relative cell number: 27.1 ± 0.85
MDA-MB-231; 100 nM
  relative cell number: 6.58 ± 1.3
MDA-MB-231; 1000 nM
  relative cell number: 4.86 ± 1.3
BT-20; 1 nM
  relative cell number: 88.6 ± 16
BT-20; 10 nM
  relative cell number: 41.8 ± 5
BT-20; 100 nM
  relative cell number: 4.66 ± 1.7
BT-20; 1000 nM
  relative cell number: 5.07 ± 2.5
SKBR3; 1 nM
  relative cell number: 79.4 ± 20
SKBR3; 10 nM
  relative cell number: 62.2 ± 7.2
SKBR3; 100 nM
  relative cell number: 6.9 ± 0.62
SKBR3; 1000 nM
  relative cell number: 4.71 ± 4.5
HCC-38; 1 nM
  relative cell number: 54.7 ± 3.2
HCC-38; 10 nM
  relative cell number: 20.2 ± 2
HCC-38; 100 nM
  relative cell number: 4.12 ± 0.77
HCC-38; 1000 nM
  relative cell number: 5.13 ± 0.38

## FC(F)c1nc2ccccc2n1-c1nc(N2CCOCC2)nc(N2CCOCC2)n1 [ZSTK474]
ZR-75-1; 10 nM
  relative cell number: 85.1 ± 10
ZR-75-1; 100 nM
  relative cell number: 96.2 ± 4.4
ZR-75-1; 1000 nM
  relative cell number: 53.6 ± 27
ZR-75-1; 10000 nM
  relative cell number: 50 ± 12
MDA-MB-231; 10 nM
  relative cell number: 92.9 ± 15
MDA-MB-231; 100 nM
  relative cell number: 89.6 ± 34
MDA-MB-231; 1000 nM
  relative cell number: 81.7 ± 4.7
MDA-MB-231; 10000 nM
  relative cell number: 76.3 ± 15
BT-20; 10 nM
  relative cell number: 79.2 ± 5
BT-20; 100 nM
  relative cell number: 99.2 ± 19
BT-20; 1000 nM
  relative cell number: 70.9 ± 21
BT-20; 10000 nM
  relative cell number: 55.4 ± 3
SKBR3; 10 nM
  relative cell number: 93.1 ± 1.6
SKBR3; 100 nM
  relative cell number: 85 ± 15
SKBR3; 1000 nM
  relative cell number: 60.2 ± 41
SKBR3; 10000 nM
  relative cell number: 39.1 ± 6.5
HCC-38; 10 nM
  relative cell number: 90.3 ± 4.3
HCC-38; 100 nM
  relative cell number: 94.3 ± 9.2
HCC-38; 1000 nM
  relative cell number: 83.4 ± 7.9
HCC-38; 10000 nM
  relative cell number: 56.2 ± 1.8

## O=c1ncccn1[C@@H]1O[C@H](CO)[C@@H](O)[C@H]1O [Zebularine]
ZR-75-1; 10 nM
  relative cell number: 84.7 ± 48
ZR-75-1; 100 nM
  relative cell number: 66 ± 3.3
ZR-75-1; 1000 nM
  relative cell number: 108 ± 26
ZR-75-1; 10000 nM
  relative cell number: 117 ± 5.5
MDA-MB-231; 10 nM
  relative cell number: 108 ± 38
MDA-MB-231; 100 nM
  relative cell number: 121 ± 22
MDA-MB-231; 1000 nM
  relative cell number: 93.6 ± 0.27
MDA-MB-231; 10000 nM
  relative cell number: 72.7 ± 13
BT-20; 10 nM
  relative cell number: 96.6 ± 7.1
BT-20; 100 nM
  relative cell number: 83.6 ± 14
BT-20; 1000 nM
  relative cell number: 88.3 ± 38
BT-20; 10000 nM
  relative cell number: 119 ± 24
SKBR3; 10 nM
  relative cell number: 98.7 ± 28
SKBR3; 100 nM
  relative cell number: 83.6 ± 30
SKBR3; 1000 nM
  relative cell number: 83.8 ± 14
SKBR3; 10000 nM
  relative cell number: 106 ± 9.4
HCC-38; 10 nM
  relative cell number: 112 ± 28
HCC-38; 100 nM
  relative cell number: 107 ± 6.2
HCC-38; 1000 nM
  relative cell number: 107 ± 1.8
HCC-38; 10000 nM
  relative cell number: 115 ± 7.4
